The source of these data is ChEMBL document CHEMBL1201862, “PubChem BioAssay data set” (2004).

Some test systems named below: HOP-18; DMS-114; RXF 631; SNB-78; LXFL 529; DLD-1; M19-MEL; KM-20L2; XF498.
Holding throughout (test): growth of human tumour cells (NCI), 48 h

Structures are written as SMILES.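 Assay format: 96-well plates, 48-hour exposure. Here, GI50 denotes the concentration required for 50% inhibition of growth.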 Calls of active or inactive are those of the source. Rule as the data show it: active = GI50 up to about 1.1 µM and inactive = higher.

`Cc1ccc(NC(=O)C(=O)C(C(=O)c2ccc3ccccc3c2)C2OC(=O)c3ccccc32)c(C)c1` (configuration not stated): the GI50 is 12.1 µM (inactive) in the experiment on HOP-18; 7.6 µM (inactive) in the experiment on DMS-114; 4.68 µM (inactive) in the experiment on RXF 631; 8.73 µM (inactive) in the experiment on SNB-78; 8.09 µM (inactive) in the experiment with LXFL 529; 12.6 µM (inactive) with DLD-1. The GI50 was 6.38 µM (inactive) with M19-MEL, 24.4 µM (inactive) in the experiment on KM-20L2 and 0.485 µM (active) with XF498.
Take `O=Cc1c(O)c(C(=O)Nc2ccc3[nH]c(=O)[nH]c3c2)cc2ccccc12`: the GI50 in the experiment with HOP-18, in the experiment on DMS-114, in the experiment with RXF 631, in the experiment with SNB-78, in the experiment on LXFL 529 and in the experiment with DLD-1 was > 100 µM (inactive) each time. In addition, the GI50 in the experiment on M19-MEL and in the experiment with KM-20L2 was > 100 µM (inactive) in each case.
Regarding `C=C1C(=O)OC2CCCCC3OC3C12` (configuration not stated), the GI50 was 11 µM (inactive) in the experiment with HOP-18; 6.19 µM (inactive) in the experiment with RXF 631; 19.4 µM (inactive) in the experiment on SNB-78; 7.26 µM (inactive) in the experiment on LXFL 529; 7.83 µM (inactive) in the experiment on DLD-1; 11.6 µM (inactive) in the experiment with M19-MEL. Moreover, the GI50 in the experiment with KM-20L2 was 10.1 µM (inactive); in the experiment with XF498, 12 µM (inactive).
For the compound `Cc1cc(N(CCC#N)CCC#N)ccc1/C=C(\N=[N+]=[N-])C(=O)NC(=O)COc1ccccc1`, the GI50 in the experiment on HOP-18 is > 100 µM (inactive); in the experiment on DMS-114, > 100 µM (inactive); in the experiment with RXF 631 it was > 100 µM (inactive); in the experiment with SNB-78 it was > 61.7 µM (inactive); with LXFL 529, > 100 µM (inactive); with DLD-1, > 100 µM (inactive). Also, the GI50 is > 100 µM (inactive) in the experiment on KM-20L2 and 34.7 µM (inactive) with XF498.
As for `O=C(Nc1ccc(Cl)cc1)c1cc([N+](=O)[O-])ccc1O`, the GI50 with HOP-18 was 1.58 µM (inactive); in the experiment on DMS-114, 2.35 µM (inactive); with RXF 631, 2.9 µM (inactive); in the experiment on LXFL 529, 2.9 µM (inactive); in the experiment on DLD-1, 3.71 µM (inactive); in the experiment with M19-MEL, 3.52 µM (inactive). Also, the figures for the GI50 with KM-20L2 and in the experiment on XF498 were 4.49 µM (inactive) and 2.82 µM (inactive), respectively.
Take `O=C(NC1CCCCC1)c1c(O)[nH]c(=S)[nH]c1=O`: the GI50 with HOP-18 was > 100 µM (inactive); with DMS-114, 88.5 µM (inactive); in the experiment with RXF 631, > 100 µM (inactive); in the experiment with SNB-78 it was 99.1 µM (inactive); with LXFL 529, > 100 µM (inactive); in the experiment with DLD-1, > 100 µM (inactive). For the same compound, the GI50 in the experiment on M19-MEL and in the experiment on KM-20L2 was > 100 µM (inactive) throughout.
For `COC(=O)/C=C(/C(=O)OC)C1(C)c2cc(C(=O)OC)c(C(=O)OC)c(N)c2C(=N)N1c1ccccc1` (configuration not stated), the GI50 in the experiment on HOP-18 is 20.6 µM (inactive); in the experiment on DMS-114, 15.1 µM (inactive); in the experiment on RXF 631, 29.1 µM (inactive); with LXFL 529, 19 µM (inactive); in the experiment on DLD-1, 13.8 µM (inactive); in the experiment on M19-MEL, 13.9 µM (inactive). Moreover, the GI50 in the experiment with KM-20L2 is 17 µM (inactive); in the experiment on XF498, 14.7 µM (inactive).
`COc1ccc(C(c2c(O)c3ccccc3n(C)c2=O)c2c(O)c3ccccc3n(C)c2=O)cc1`: the GI50 was 35.7 µM (inactive) in the experiment on HOP-18; 63.1 µM (inactive) in the experiment with DMS-114; 21.3 µM (inactive) with RXF 631; 7.16 µM (inactive) in the experiment on SNB-78; 46.1 µM (inactive) with LXFL 529; 37.5 µM (inactive) in the experiment with DLD-1. Further, the GI50 in the experiment on M19-MEL is 98.4 µM (inactive); with KM-20L2, 21.3 µM (inactive); in the experiment on XF498 it was 99.8 µM (inactive).
`CCOc1ccc2c(c1)[n+]([O-])c(-c1ccc([N+](=O)[O-])cc1)c(N)[n+]2[O-]`: the GI50 in the experiment with HOP-18 was > 100 µM (inactive); in the experiment on DMS-114, 29.6 µM (inactive); with RXF 631 it was > 100 µM (inactive); in the experiment with SNB-78 it was > 100 µM (inactive); with LXFL 529, > 100 µM (inactive); with DLD-1, > 100 µM (inactive). In addition, the GI50 with M19-MEL and in the experiment with KM-20L2 was > 100 µM (inactive) throughout.
Turning to `COC(=O)CC1CCN(C#N)CC1CC[N+](=O)[O-]` (configuration not stated), the GI50 in the experiment with HOP-18, in the experiment on DMS-114, in the experiment with RXF 631, in the experiment with SNB-78, with LXFL 529 and with DLD-1 was > 100 µM (inactive) in each case. In addition, the GI50 in the experiment on M19-MEL and in the experiment with KM-20L2 was > 100 µM (inactive) each time.
